Measured values: PMC10673258, “Taxifolin as a Metallo-β-Lactamase Inhibitor in Combination with Augmentin against Verona Imipenemase 2 Expressing Pseudomonas aeruginosa” (Microorganisms, 2023)
Where “and” joins values, the source holds several entries; their conditions need not be identical. Equal values may be shown once. Read-outs that look alike come from different tables or passages of the source.

How the values were obtained:
[1] = Toxicity against wild type human HEK 293T cells; type: cell-based; details: HEK293T cells (wild type); quercetin analogs alone; human kidney cell line HEK293T
[2] = test system: PAX5VIM-2 (VIM-2 expressing bioluminescent PA); test: MIC assay against PAX5VIM-2 (CLSI, MHB-2); type: cell-based, Pseudomonas aeruginosa
Experimental: MIC assays were carried out following the Clinical and Laboratory Standards Institute (CLSI) established guidelines using MHB-2 and bacterial concentrations of 5 × 10^5 CFU/mL [57, 58]. A varying concentration of quercetin derivatives or conventional antibiotics was dissolved in the media with bacteria cells. The resulting suspensions were transferred to a 96-well microliter plate at 200 μL/well (triplicate for each compound). The plate was then incubated overnight at 37 °C. The MIC was determined as the concentration at which no growth was observed.

[3] = target: T1, VIM-2 (Pseudomonas aeruginosa, UniProt Q9K2N0); test: VIM-2 enzyme kinetics with nitrocefin, competitive inhibition model; type: biochemical
T1 construct: The activity of purified VIM-2 was measured spectrophotometrically; made in house
Experimental: Nitrocefin was used as the substrate, as it is a chromogenic cephalosporin. The activity of purified VIM-2 was measured spectrophotometrically (Cytation 3, BioTek, Winooski, VT, USA) in a potassium phosphate buffer (PBS, pH = 7.4, prepared according to a published recipe).

[4] = parameters: method as in PMID 27864057; details: read-out: Kd (Zn binding); cited from earlier work
[5] = test system: HEK 293T cells; test: Toxicity against wild type human HEK 293T cells; type: cell-based; details: quercetin analogs alone; human kidney cell line HEK293T
[6] = test system: PAX5-WT; test: Single dose inhibition against SBL-producing PAX5-WT; type: cell-based, Pseudomonas aeruginosa; details: amoxicillin 25 μM; amoxicillin:taxifolin 1:1; QATC 2:1:2
Experimental: Bacteria were diluted to 5 × 10^5 CFU/mL in MH broth (MHB). A growth control containing only bacteria and a negative control containing only MHB were added. Test wells were treated with either 25 µM meropenem, ceftazidime, amoxicillin, or doripenem, as well as 1:1 combinations of the previous antibiotics with vaborbactam. Each set was repeated in triplicate, and the final viability was determined in reference to the growth control.
Supplementary Figure S9. Single dose inhibition of taxifolin against SBL-producing PAX5-WT. Concentration of amoxicillin was 25 μM for all samples. The molar ratio of the augmentin was 2:1 (amoxicillin:clavulanate); the molar ratio of the amoxicillin:taxifolin was 1:1; the molar ratio of the QATC was 2:1:2 (amoxicillin:clavulanate:taxifolin).
Supplementary Figure S10. […]

[7] = quercetin analogs in combination with augmentin (2:1 molar amoxicillin:clavulanate), PAX5VIM-2
[8] = inhibitor fixed at 500 μM, nitrocefin 5 to 100 μM, PBS pH 7.4, 10 min pre-incubation, read-out: VIM-2, Ki

COc1ccc(-c2oc3cc(OC)c(OC)c(O)c3c(=O)c2OC)cc1O [compound 13]
CC50 [1]: > 200 µM | MIC [2, 7]: 9.4 µg/mL

COc1ccc(-c2cc(=O)c3c(O)cc(O)cc3o2)cc1O [compound 12]
MIC [2, 7]: 7.5 µg/mL

O=c1cc(-c2ccc(O)c(O)c2)oc2c(C3OC(CO)C(O)C(O)C3O)c(O)cc(O)c12 (stereo not drawn) [1d]
Ki [3, 8]: 34 ± 4 µM

O=c1cc(-c2ccc(O)c(O)c2)oc2cc(O)cc(O)c12 [11a]
Ki [3, 8]: 36 ± 2 µM | CC50 [1]: 175 µM | MIC [2, 7]: 7.2 µg/mL

O=c1c(O)c(-c2ccc(O)c(O)c2)oc2cc(O)cc(O)c12 [1a, quercetin]
Ki [3, 8]: 41 ± 4 µM | Kd [4]: ~100 µM

CC1(C)S[C@@H]2[C@H](NC(=O)[C@H](N)c3ccc(O)cc3)C(=O)N2[C@H]1C(=O)O [amoxicillin, reference compound]
MIC ([2]; Pseudomonas aeruginosa, read-out: MIC of amoxicillin): 100 µM and 36 µg/mL

chrysoeriol [compound 14]
CC50 [5]: > 200 µM | MIC [2, 7]: 7.6 µg/mL

O=c1c(O)c(-c2cc(O)c(O)c(O)c2)oc2cc(O)cc(O)c12 [compound 3]
Ki [3, 8]: 42 ± 1 µM | MIC [2, 7]: 9.4 µg/mL

O=C1c2c(O)cc(O)cc2OC(c2ccc(O)c(O)c2)C1O (stereo not drawn) [compound 5, taxifolin]
Ki [3, 8]: 8 ± 1 µM | CC50 [1]: > 200 µM | concentration inhibiting VIM-2 expressing P. aeruginosa cell proliferation ([2]; as part of a triple combination with amoxicillin and clavulanate): < 4 µg/mL | MIC [2, 7]: 3.1 µg/mL | benefit in the killing of SBL-only PAX5-WT [6]: unable to provide any significant benefit in the killing

O=c1c(O)c(-c2ccc(O)c(O)c2)oc2cc(O)c(O)c(O)c12 [compound 4, quercetagetin]
Ki [3]: 13 ± 2 µM | MIC [2, 7]: 3.9 µg/mL

O=C(O)[C@H]1O[C@@H](Oc2cc(O)c3c(=O)cc(-c4ccc(O)c(O)c4)oc3c2)[C@H](O)[C@@H](O)[C@@H]1O [11b]
Ki [3, 8]: 52 ± 9 µM | CC50 [1]: 182 µM | MIC [2, 7]: 11.6 µg/mL
